Measurements from patent publication US20130012466A1 (priority 2006, published 2013).
Entries after “also recorded” stand apart in the source; their conditions may differ. Like-named read-outs stand apart in the source and are kept apart here.

Legend:
NCI-H460 = assay: Cytotoxicity assay (cell titer-glo and calcein AM), NCI-H460; conditions: NCI-H460, % error in parentheses
Hep3B = assay: Cytotoxicity assay (cell titer-glo and calcein AM), Hep3B; conditions: Hep 3B, % error in parentheses
SF-268 = assay: Cytotoxicity assay (cell titer-glo and calcein AM), SF-268; conditions: SF-268, % error in parentheses
A549 = assay: Cytotoxicity assay (cell titer-glo and calcein AM), A549; conditions: A549, % error in parentheses
Du145 = assay: Cytotoxicity assay (cell titer-glo and calcein AM), Du145; conditions: Du145, % error in parentheses
MCF7 = assay: Cytotoxicity assay (cell titer-glo and calcein AM), MCF7
SK-OV-3 = assay: Cytotoxicity assay (cell titer-glo and calcein AM), SK-OV-3
[1] = tested on: mouse mammary normal epithelial control cell line; assay: Cytotoxicity assay, normal control cell line
ADR-RES = assay: Cytotoxicity assay (cell titer-glo and calcein AM), ADR-RES; conditions: NCI/ADR RES, % error in parentheses
A549 cells [2] = assay: Drug combination study with colchicine (Chou-Talalay combination index); conditions: for plus colchicine, mean CI / plus colchicine, median CI: combination index, colchicine held at IC10, A549 cells; for interaction with colchicine: drug combination, A549 cells, Chou-Talalay
Description: (§1) Ten thousand A549 cells per well were plated in triplicate in 96 well black tissue culture treated plates. Cells were incubated for one hour at 37° C. to allow cells to attach.
(§2) All synergy experiment results were replicated at least three times and the overall effects analyzed by averaging all combination indexes generated if the fraction affected was greater than 0.2.

tubulin = assay: In vitro tubulin polymerization assay (fluorescence-based); format: biochemical; design: key to tubulin polymeriz.: ‘D’ designates destabilizer; ‘S’ designates stabilizer; conditions: for effect on tubulin polymerization / microtubules: tested in duplicate on at least two days
Description: In vitro tubulin polymerization assays were performed using a fluorescence-based assay (Cytoskeleton, Inc., Denver, Colo.). […] Aliquots (5 μL) of each compound or control were added to a 96-well black half area plate (Corning Costar, Inc.) pre-warmed to 37° C. Cold tubulin reaction mix (50 μL 1× Buffer—80 mM piperazine-N,N′-bis[2-ethanesulfonic acid]sequisodium salt; 2.0 mM magnesium chloride; 0.5 mM ethylene glycol-bis[β-amino-ethyl ether) N,N,N′,N′-tetra-acetic acid, pH 6.9, 10 μM fluorescent reporter; 20% tubulin glycerol buffer—80 mM piperazine-N,N′-bis[2-ethanesulfonic acid] sequisodium salt; 2.0 mM magnesium chloride; 0.5 mM ethylene glycol-bis(β-amino-ethyl ether) N,N,N′,N′-tetra-acetic acid, 60% v/v glycerol, pH 6.9, 1 mM GTP; and 2 mg mL^−1 tubulin stock) was added to each of the compounds. […] Polymerization curves were generated in Excel after background correction and the effects of test compounds were compared to controls.
Library members that accelerated the rate of tubulin polymerization were deemed microtubule stabilizers, whereas compounds that decelerated the rate of tubulin polymerization were deemed microtubule de-stabilizers.

A549 cells [3] = assay: Drug combination study with paclitaxel (Chou-Talalay combination index); conditions: for synergy (paclitaxel): combination index class, combination with paclitaxel, Chou-Talalay method; for plus paclitaxel, mean CI / plus paclitaxel, median CI: combination index, paclitaxel held at IC10, A549 cells; for interaction with paclitaxel/taxol: drug combination, A549 cells, Chou-Talalay;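 as to all read-outs here: combination indexes averaged only over points where fraction affected exceeded 0.2, with each synergy experiment repeated at least three times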
Description: as §1, §2

[4] = tested on: nine human cancer cell lines and one normal mouse control cell line; assay: Cytotoxicity screen across the whole cell line panel; format: cell-based
[5] = Precipitation in assay media; format: physicochemical; conditions: cell culture media / assay
[6] = read-out: Cytotoxicity IC50, NCI-H460, CTG, CTG (cell titer-glo) readout
[7] = read-out: Cytotoxicity IC50, NCI-H460, calcein, calcein AM readout
[8] = read-out: Cytotoxicity IC50, Hep 3B, CTG, CTG (cell titer-glo) readout
[9] = read-out: Cytotoxicity IC50, Hep 3B, calcein, calcein AM readout
[10] = read-out: Cytotoxicity IC50, SF-268, CTG, CTG (cell titer-glo) readout
[11] = read-out: Cytotoxicity IC50, SF-268, calcein, calcein AM readout
[12] = read-out: Cytotoxicity IC50, A549, CTG, CTG (cell titer-glo) readout
[13] = read-out: Cytotoxicity IC50, A549, calcein, calcein AM readout
[14] = read-out: Cytotoxicity IC50, Du145, CTG, CTG (cell titer-glo) readout
[15] = read-out: Cytotoxicity IC50, Du145, calcein, calcein AM readout
[16] = read-out: Cytotoxicity IC50, MCF7, CTG, CTG (cell titer-glo) readout, % error in parentheses
[17] = read-out: Cytotoxicity IC50, MCF7, calcein, calcein AM readout, % error in parentheses
[18] = read-out: Cytotoxicity IC50, SK-OV-3, CTG, SK-OV-3, CTG (cell titer-glo) readout, % error in parentheses
[19] = read-out: Cytotoxicity IC50, SK-OV-3, calcein, SK-OV-3, calcein AM readout, % error in parentheses
[20] = read-out: Cytotoxicity IC50, NmuMG, CTG, CTG (cell titer-glo) readout, % error in parentheses
[21] = read-out: Cytotoxicity IC50, NmuMG, calcein, calcein AM readout, % error in parentheses
[22] = read-out: Cytotoxicity IC50, NCI/ADR RES, CTG, CTG (cell titer-glo) readout
[23] = read-out: Cytotoxicity IC50, NCI/ADR RES, calcein, calcein AM readout

Compound | IC50 (NCI-H460; [6]) | IC50 (NCI-H460; [7]) | IC50 (Hep3B; [8]) | IC50 (Hep3B; [9]) | IC50 (SF-268; [10]) | IC50 (SF-268; [11]) | IC50 (A549; [12]) | IC50 (A549; [13]) | IC50 (Du145; [14]) | IC50 (Du145; [15]) | IC50 (MCF7; [16]) | IC50 (MCF7; [17]) | IC50 (SK-OV-3; [18]) | IC50 (SK-OV-3; [19]) | IC50 [1, 20] | IC50 [1, 21] | IC50 (ADR-RES; [22]) | IC50 (ADR-RES; [23]) | plus colchicine, mean CI (A549 cells [2]) | plus colchicine, median CI (A549 cells [2]) | also measured
COc1cc2c(c(OC)c1OC)-c1ccc(OC)c(=O)cc1[C@@H](NC(=O)CN(OC)[C@@H]1O[C@H](CO)[C@@H](O[C@H]3O[C@H](CO)[C@@H](O[C@H]4O[C@H](CO)[C@@H](O)[C@H](O)[C@H]4O)[C@H](O)[C@H]3O)[C@H](O)[C@H]1O)CC2 [Col13, maltotrioside] | > 10000 nM | 2580 nM | > 10000 nM | > 10000 nM | > 10000 nM | > 10000 nM | > 10000 nM | > 10000 nM | > 10000 nM | > 10000 nM | 9860 nM | > 10000 nM | > 10000 nM | > 10000 nM | > 10000 nM | > 10000 nM | > 10000 nM | > 10000 nM | – | – | IC50 (HCT-116): > 10000 nM
D-glucorono-6,3-lactonide [Col45] | 775 nM | 1020 nM | 793 nM | 962 nM | 398 nM | 462 nM | 1100 nM | 1060 nM | 1140 nM | 939 nM | 760 nM | 679 nM | 836 nM | 887 nM | 1460 nM | > 10000 nM | 1140 nM | 403 nM | 107.40 | 102.90 | interaction with colchicine (A549 cells [2]): strong antagonism; tubulin polymeriz. (tubulin): D; effect on tubulin polymerization / microtubules (tubulin): destabilizing; also recorded: destabilized microtubules; synergy (paclitaxel) (A549 cells [3]): ++++ (strong synergism, Cl 0.1-0.3); plus paclitaxel, mean CI (A549 cells [3]): 0.12; plus paclitaxel, median CI (A549 cells [3]): 0.07; interaction with paclitaxel/taxol (A549 cells [3]): strong synergism; IC50 ([4]; cell lines other than ADR-Res, SF-268 and HCT-116, read-out: potencies (IC50) in all other cell lines examined): > 900 nM
2-deoxy-L-riboside [Col19] | 415 nM | 191 nM | 376 nM | 437 nM | 284 nM | 575 nM | 376 nM | 636 nM | 369 nM | 262 nM | 916 nM | 2820 nM | 240 nM | 538 nM | 2910 nM | 2850 nM | 359 nM | 315 nM | 0.54 | 0.50 | interaction with colchicine (A549 cells [2]): synergism; tubulin polymeriz. (tubulin): S; effect on tubulin polymerization / microtubules (tubulin): stabilizing; also recorded: stabilized the microtubules; synergy (paclitaxel) (A549 cells [3]): — (moderate antagonism, Cl 1.2-1.45); plus paclitaxel, mean CI (A549 cells [3]): 43.20; plus paclitaxel, median CI (A549 cells [3]): 13.40; interaction with paclitaxel/taxol (A549 cells [3]): antagonism; reduction in potency relative to (1) ([4]; versus parent colchicine): ~10 fold
COc1cc2c(c(OC)c1OC)-c1ccc(OC)c(=O)cc1C(NC(=O)CN(OC)C1OC(COCc3ccccc3)C(OCc3ccccc3)C1OCc1ccccc1)CC2 (stereo not shown) [Col53] | 41 nM | 71 nM | 47 nM | 69 nM | 37 nM | 18 nM | 48 nM | 62 nM | 41 nM | 32 nM | 49 nM | 39 nM | 42 nM | 36 nM | 120 nM | 392 nM | 46 nM | 37 nM | – | – | precipitation [5]: precipitation in cell culture media; also recorded: precipitated
2-deoxy-D-galactoside [Col6] | 745 nM | 948 nM | 817 nM | 1120 nM | 632 nM | 691 nM | 782 nM | 942 nM | 892 nM | 958 nM | 665 nM | 2220 nM | 388 nM | 381 nM | 3260 nM | 4170 nM | 877 nM | 887 nM | 1.30 | 1.19 | interaction with colchicine (A549 cells [2]): antagonism; tubulin polymeriz. (tubulin): D; effect on tubulin polymerization / microtubules (tubulin): destabilizing; also recorded: destabilized microtubules; IC50 (SK-OV-3; read-out: IC50 in SK-OV-3 cells): 381 nM; synergy (paclitaxel) (A549 cells [3]): + (slight synergism, Cl 0.85-0.9); plus paclitaxel, mean CI (A549 cells [3]): 0.88; plus paclitaxel, median CI (A549 cells [3]): 0.52; interaction with paclitaxel/taxol (A549 cells [3]): synergy; IC50 ([4]; all cell lines other than SK-OV-3, range printed with mixed units nM-μM, read-out: potencies (IC50) in all other cell lines): 691 to 1120 nM
COc1cc2c(c(OC)c1OC)-c1ccc(OC)c(=O)cc1[C@@H](NC(C)=O)CC2 [colchin] | – | – | – | – | 67 nM | – | – | – | 169 nM | – | – | – | – | – | – | – | 18 nM | – | – | – | IC50 (HCT-116): 153 nM
